Laboratory results published in patent publication US6818644B1, “Substituted piperazine derivatives, the preparation thereof and their use as medicaments” (Boehringer Ingelheim Pharm GmbH & Co, KG, priority 1999, dated 2004).

melting point [°C]	Compound
59	O=C(NCC(F)(F)F)C1(CCCCN2CCN(c3cc(-c4ccccc4)ccn3)CC2)c2ccccc2-c2ccccc21 [Example 29, 9-{4-[4-(4-phenyl-pyridin-2-yl)-piperazin-1-yl]-butyl}-9H-fluorene-9-carboxylic acid-(2,2,2-trifluoroethyl)-amide]
147 to 149	O=C(NCC(F)(F)F)C1(CCCCN2CCN(c3ccc(C(F)(F)F)cn3)CC2)c2ccccc2-c2ccccc21 [Example 27, 9-{4-[4-(5-trifluoromethyl-pyridin-2-yl)-piperazin-1-yl]-butyl}-9H-fluorene-9-carboxylic acid-(2,2,2-trifluoroethyl)-amide]
122	COc1cccc(N2CC(C)N(CCCCC3(C(=O)NCC(F)(F)F)c4ccccc4-c4ccccc43)C(C)C2)n1 (centres unmarked) [Example 36, 9-{4-[4-(6-methoxy-pyridin-2-yl)-2,6-dimethyl-piperazin-1-yl]-butyl}-9H-fluorene-9-carboxylic acid-(2,2,2-trifluoroethyl)-amide]
122	COc1cccc(N2CCN(CCCCC3(C(=O)NCC(F)(F)F)c4ccccc4Oc4ccccc43)CC2)n1 [Example 35, 9-{4-[4-(6-methoxy-pyridin-2-yl)-piperazin-1-yl]-butyl}-9H-xanthene-9-carboxylic acid-(2,2,2-trifluoroethyl)-amide]
63	O=C(NCC(F)(F)F)C1(CCCCN2CCN(c3cccc(-c4ccccc4)n3)CC2)c2ccccc2-c2ccccc21 [Example 28, 9-{4-[4-(6-phenyl-pyridin-2-yl)-piperazin-1-yl]-butyl}-9H-fluorene-9-carboxylic acid-(2,2,2-trifluoroethyl)-amide]
78 to 79	COc1cccc(N2CC(C)N(CCCCC3(C(=O)NCc4ccc(F)cc4)c4ccccc4-c4ccccc43)C(C)C2)n1 (centres unmarked) [Example 37, 9-{4-[4-(6-methoxy-pyridin-2-yl)-2,6-dimethyl-piperazin-1-yl]-butyl}-9H-fluorene-9-carboxylic acid-4-fluorobenzyl-amide]

More lines, now with the values behind:

Compound	melting point [°C]
O=C(NCC(F)(F)F)C1(CCCCN2CCN(c3ccc(-c4ccccc4)cc3)CC2)c2ccccc2-c2ccccc21 [Example 3, 9-[4-(4-biphenyl-4-yl-piperazin-1-yl)-butyl]-9H-fluorene-9-carboxylic acid-(2,2,2-trifluoroethyl)-amide]	209 to 211
O=C(NCC(F)(F)F)C1(CCCCN2CCN(c3ccc([N+](=O)[O-])cc3)CC2)c2ccccc2-c2ccccc21 [Example 17, 9-{4-[4-(4-nitro-phenyl)-piperazin-1-yl]-butyl}-9H-fluorene-9-carboxylic acid-(2,2,2-trifluoroethyl)-amide]	146
O=C(NCC(F)(F)F)C1(CCCCN2CCN(c3ccccn3)CC2)c2ccccc2-c2ccccc21 [Example 20, 9-{4-[4-Pyridin-2-yl-piperazin-1-yl]-butyl}-9H-fluorene-9-carboxylic acid-(2,2,2-trifluoroethyl)-amide]	123
Cc1cccc(N2CCN(CCCCC3(C(=O)NCC(F)(F)F)c4ccccc4-c4ccccc43)CC2)n1 [Example 25, 9-{4-[4-(6-methyl-pyridin-2-yl)-piperazin-1-yl]-butyl}-9H-fluorene-9-carboxylic acid-(2,2,2-trifluoroethyl)-amide]	85 to 87
O=C(NCC(F)(F)F)C1(CCCCN2CCN(c3cccc(Cl)c3)CC2)c2ccccc2-c2ccccc21 [Example 5, 9-{4-[4-(3-Chloro-phenyl)-piperazin-1-yl]-butyl}-9H-fluorene-9-carboxylic acid-(2,2,2-trifluoroethyl)-amide]	122
O=C(NCC(F)(F)F)C1(CCCCN2CCN(c3ccc(F)cc3)CC2)c2ccccc2-c2ccccc21 [Example 9, 9-{4-[4-(4-Fluorophenyl)-piperazin-1-yl]-butyl}-9H-fluorene-9-carboxylic acid-(2,2,2-trifluoroethyl)-amide]	116 to 117
O=C(NCC(F)(F)F)C1(CCCCN2CCN(c3ccc(OCc4ccccc4)cc3)CC2)c2ccccc2-c2ccccc21 [Example 6, 9-{4-[4-(4-Benzyloxy-phenyl)-piperazin-1-yl]-butyl}-9H-fluorene-9-carboxylic acid-(2,2,2-trifluoroethyl)-amide]	180
O=C(NCC(F)(F)F)C1(CCCCN2CCN(c3ccc(C(F)(F)F)cc3)CC2)c2ccccc2-c2ccccc21 [Example 7, 9-{4-[4-(4-Trifluoromethyl-phenyl)-piperazin-1-yl]-butyl}-9H-fluorene-9-carboxylic acid-(2,2,2-trifluoroethyl)-amide]	176
O=C(NCC(F)(F)F)C1(CCCCN2CCN(c3ccc(Cl)c(Cl)c3)CC2)c2ccccc2-c2ccccc21 [Example 12, 9-{4-[4-(3,4-dichlorophenyl)-piperazin-1-yl]-butyl}-9H-fluorene-9-carboxylic acid-(2,2,2-trifluoroethyl)-amide]	122
O=C(NCC(F)(F)F)C1(CCCCN2CCN(c3ccc(Cl)cc3)CC2)c2ccccc2-c2ccccc21 [Example 4, 9-{4-[4-(4-Chloro-phenyl)-piperazin-1-yl]-butyl}-9H-fluorene-9-carboxylic acid-(2,2,2-trifluoroethyl)-amide]	166
Cl.Nc1ccc(N2CCN(CCCCC3(C(=O)NCC(F)(F)F)c4ccccc4-c4ccccc43)CC2)cc1	> 270
O=C(NCC(F)(F)F)C1(CCCCN2CCN(c3ccc(Cl)c(C(F)(F)F)c3)CC2)c2ccccc2-c2ccccc21 [Example 10, 9-{4-[4-(4-Chloro-3-trifluoromethyl-phenyl)-piperazin-1-yl]-butyl}-9H-fluorene-9-carboxylic acid-(2,2,2-trifluoroethyl)-amide]	96
Cc1cccc(N2CCN(CCCCC3(C(=O)NCc4ccc(F)cc4)c4ccccc4-c4ccccc43)CC2)n1 [Example 26, 9-{4-[4-(6-methyl-pyridin-2-yl)-piperazin-1-yl]-butyl}-9H-fluorene-9-carboxylic acid-4-fluorobenzyl-amide]	96 to 97
COc1ccc(N2CCN(CCCCC3(C(=O)NCC(F)(F)F)c4ccccc4-c4ccccc43)CC2)cc1 [Example 13, 9-{4-[4-(4-methoxy-phenyl)-piperazin-1-yl]-butyl}-9H-fluorene-9-carboxylic acid-(2,2,2-trifluoroethyl)-amide]	120
